Measured values reported in patent US5106407A, “Iodones and methods for antimicrobial use” (priority 1989, dated 1992).

System: Klebsiella pneumoniae
Test: minimum inhibitory concentration (MIC), agar dilution
Assay type: cell-based
Conditions: Klebsiella pneumoniae, ATCC8308; ATCC 8308; nutrient agar pH 6.8; read-out: MIC
Method: The minimum inhibitory concentration (MIC) for the compound of Example 19, i.e., (2-nitrophenyl)-iodonium 2,2-dimethyl-4,6-dioxo-1,3-dioxan-5-ylide was determined for 9 bacteria (using nutrient agar) and 5 yeast and fungi (using malt yeast agar). A one percent solution of this test compound (i.e., the compound of Example 19) was prepared in a mixture of acetone-water. Nutrient agar was prepared at pH 6.8 using deionized water according to standard Difco procedures. Malt yeast agar was prepared by adding 3 g Bacto yeast extract and 42 g Bacto Malt agar per liter of deionized water. The agar (nutrient agar when testing with bacteria and malt yeast agar when testing with yeast and fungi) was dispensed in 30 mL aliquots into 25×200 millimeter (mm) test tubes, capped and autoclaved for 15 min at 115° C. The test tubes containing the agar were cooled in a water bath until the temperature of the agar was 48° C. and then an appropriate amount of the one percent solution of the test compound was added (except in the controls where no test compound was added with the acetone-water) to the respective test tubes so that final concentrations of 500, 250, 100, 50, 25, 10, 5, 2.5, 1.0 and 0 parts per million (ppm) of the test compound in the agar were obtained. The agar solutions were each mixed and poured into individual petri plates so that each petri plate contained agar having a known concentration of test compound dispersed therein. After drying for 24 hr, the petri plates were inoculated with bacteria when the petri plates contained nutrient broth agar or with fungi and yeast when the petri plates contained malt yeast agar.
The inoculation with bacteria was accomplished using the following procedure. Twenty-four hr cultures of each of the bacteria were prepared by incubating the respective bacteria in tubes containing nutrient broth for 24 hr at 30° C. in a shaker. Dilutions of each of the 24 hr cultures were made so that 9 separate suspensions (one for each of the 9 test bacteria) were made, each containing about 10^8 colony forming units (CFU) per mL of suspension of a particular bacteria. Aliquots of 0.3 mL of each of the above suspensions were used to fill individual wells of a Steer's Replicator. For each microbial suspension, 0.3 mL was used to fill 3 wells (i.e., 3 wells of 0.3 mL each) so that for the 9 different bacteria 27 wells were filled. The Steer's Replicator was then used to inoculate the petri plates.
The petri plates were incubated at 30° C. for 48 hr and then read to determine if the test compound (i.e., the compound of Example 19) which was incorporated into the agar prevented growth of the respective bacteria. The minimum inhibitory concentration (MIC) for each bacteria was defined as the lowest concentration of the test compound which prevented growth of that bacteria.
In a similar procedure, the MIC (in ppm) of the compound of Example 11 (i.e., (2-nitrophenyl)-iodonium 2,6-dioxocyclohexylide) for various organisms was determined at an acid pH (about 6.8) and at an alkaline pH (about 8.2).

In the case of `CC1(C)OC(=O)[C-]([I+]c2ccccc2[N+](=O)[O-])C(=O)O1` [Example 19, (2-Nitrophenyl)-iodonium 2,2-dimethyl-4,6-dioxo-1,3-dioxan-5-ylide], the MIC is reported as ≤ 1 µg/mL.
